Source: US20040106626A1, “6-Membered unsaturated heterocyclic compounds useful for selective inhibition of the coagulation cascade” (Pharmacia Corporation, priority 2001, published 2004)

Columns and labels:
Assay type in all cases: biochemical
[1] = system: Normal human pooled plasma; test: Prothrombin time (PT) clotting assay; conditions: concentration at which prothrombin time is prolonged by 2x normal, reported as less than or greater than 50 uM
Protocol: The prothrombin time (PT) assay is a clotting assay that is used to determine deficiencies of clotting factor activity in the extrinsic pathway. The assay measures time to clotting after the addition of thromboplastin (human tissue factor). Normal human pooled plasma is incubated with 100 uM compound or saline in a coagulation machine. Thromboplastin is added and time to clotting is measured. Compounds with greater than 3×normal PT of 11.0 seconds are further analyzed by concentration response to determine at what concentration the prothrombin time is prolonged by 2×normal.

Human factor Xa = biological target: T1, Human factor Xa (Homo sapiens, UniProt P00742); test: Xa assay (chromogenic substrate S-2765); conditions: reported only as less than or greater than 30 uM; read-out: Factor Xa (II) IC50
T1 construct: purchased Enzyme Research Laboratories, South Bend Ind
T1 sequence (P00742 235-488 limits assumed): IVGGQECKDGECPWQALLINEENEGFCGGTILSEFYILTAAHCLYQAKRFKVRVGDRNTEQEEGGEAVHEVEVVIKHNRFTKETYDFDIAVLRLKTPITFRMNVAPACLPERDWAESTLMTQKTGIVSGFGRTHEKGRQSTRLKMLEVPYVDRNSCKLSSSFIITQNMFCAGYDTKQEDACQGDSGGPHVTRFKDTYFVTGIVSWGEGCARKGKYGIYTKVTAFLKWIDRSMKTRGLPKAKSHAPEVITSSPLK
T1 sequence (P00742 41-179 limits assumed): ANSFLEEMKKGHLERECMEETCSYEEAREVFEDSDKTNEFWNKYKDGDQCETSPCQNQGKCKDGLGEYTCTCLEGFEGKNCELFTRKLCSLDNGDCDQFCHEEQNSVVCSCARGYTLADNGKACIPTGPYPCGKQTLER
In short: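 Human factor Xa (0.3 nM) was incubated with inhibitor and 0.15 mM S-2765 in 50 mM Tris-HCl pH 8.0, 100 mM NaCl, 0.1% BSA. After 60 min at RT, p-nitroaniline release was read at 405 nm after background subtraction. Percent inhibition was calculated against uninhibited control.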

Human thrombin = biological target: T2, Human thrombin (Homo sapiens, UniProt P00734); test: Thrombin assay (chromogenic substrate); conditions: reported only as less than or greater than 30 uM; read-out: Thrombin (II) IC50
T2 construct: converts prothrombin (II) to thrombin (IIa); purchased Calbiochem, La Jolla, Calif
In short: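 Chromogenic assay with p-nitroaniline-releasing substrate; thrombin activity read as OD405 nm. Percent inhibition calculated from experimental versus control absorbance.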

[2] = biological target: T3, recombinant soluble tissue factor and recombinant human factor VIIa (TF-VIIa) (Homo sapiens, UniProt P08709); test: TF-VIIa assay (chromogenic substrate hydrolysis); conditions: reported only as less than or greater than 0.1 uM
T3 construct: conversion of coagulation factor VII to VIIa by factor Xa; purchased American Diagnostica, Greenwich CT; host or cells: soluble TF made in house in E. coli
T3 sequence (P08709 213-466 limits assumed): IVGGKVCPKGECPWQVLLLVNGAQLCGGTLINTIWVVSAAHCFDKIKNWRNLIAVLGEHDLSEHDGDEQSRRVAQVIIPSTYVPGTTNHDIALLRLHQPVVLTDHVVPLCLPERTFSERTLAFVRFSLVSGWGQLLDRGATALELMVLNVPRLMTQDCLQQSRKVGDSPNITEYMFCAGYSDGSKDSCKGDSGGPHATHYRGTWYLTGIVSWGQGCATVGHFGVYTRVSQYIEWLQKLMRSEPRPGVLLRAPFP
T3 sequence (P08709 61-212 limits assumed): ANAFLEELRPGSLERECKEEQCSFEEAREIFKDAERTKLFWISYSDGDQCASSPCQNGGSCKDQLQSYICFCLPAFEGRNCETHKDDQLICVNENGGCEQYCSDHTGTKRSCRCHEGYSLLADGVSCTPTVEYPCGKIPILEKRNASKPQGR
T3 sequence (P13726 33-251 partner limits assumed): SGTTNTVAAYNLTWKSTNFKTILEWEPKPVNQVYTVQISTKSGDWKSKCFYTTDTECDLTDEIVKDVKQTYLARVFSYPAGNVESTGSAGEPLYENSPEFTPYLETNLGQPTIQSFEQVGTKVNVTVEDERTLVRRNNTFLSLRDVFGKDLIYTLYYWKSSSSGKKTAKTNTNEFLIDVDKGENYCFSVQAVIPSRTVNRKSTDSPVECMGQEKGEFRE
In short: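 100 nM soluble tissue factor and 2 nM recombinant human factor VIIa added to 0.4 mM N-methylsulfonyl-D-phe-gly-arg-p-nitroaniline with inhibitor in 50 mM Tris-HCl pH 8.0, 5 mM CaCl2, 100 mM NaCl, 0.1% BSA. Percent inhibition from OD405 versus control.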

| Compound | PT (Prothrombin time) 2xPT [1] [µM] | IC50 (Human factor Xa) [µM] | IC50 (Human thrombin) [µM] | IC50 [2] [µM] |
| --- | --- | --- | --- | --- |
| CC(C)Nc1ncc(-c2cc(N)cc(C(=O)NC(C)c3ccccc3)c2)n(CC(=O)NCc2ccc(C(=N)N)cc2)c1=O (racemic) [Example 56] | <50.0 | > 30 | < 30 | < 0.1 |
| COC(=O)c1cc(N)cc(-c2c(Br)nc(NC(C)C)c(=O)n2CC(=O)NCc2ccc(C(=N)N)cc2)c1 [Example 4, Methyl 3-amino-5-[1-[2-({4-[amino(imino)methyl]benzyl}amino)-2-oxoethyl]-3-bromo-5-(isopropylamino)-6-oxo-1,6-dihydropyrazin-2-yl]benzoate] | >50.0 | > 30 | > 30 | < 0.1 |
| CC(C)CCNC(=O)c1cc(N)cc(-c2cnc(NC(C)C)c(=O)n2CC(=O)NCc2ccc(C(=N)N)cc2)c1.O=C(O)C(F)(F)F.O=C(O)C(F)(F)F [Example 6] | <50.0 | > 30 | > 30 | < 0.1 |
| CCC(C)NC(=O)c1cc(N)cc(-c2cnc(NC(C)C)c(=O)n2CC(=O)NCc2ccc(C(=N)N)cc2)c1.O=C(O)C(F)(F)F.O=C(O)C(F)(F)F (centres unmarked) [Example 7] | <50.0 | > 30 | < 30 | < 0.1 |
| CC(C)Nc1ncc(-c2cc(N)cc(C(=O)NCc3cccc(C(F)(F)F)c3)c2)n(CC(=O)NCc2ccc(C(=N)N)cc2)c1=O.O=C(O)C(F)(F)F.O=C(O)C(F)(F)F [Example 10] | <50.0 | > 30 | > 30 | < 0.1 |
| CC(C)Nc1ncc(-c2cc(N)cc(C(=O)NC3CCC3)c2)n(CC(=O)NCc2ccc(C(=N)N)cc2)c1=O.O=C(O)C(F)(F)F.O=C(O)C(F)(F)F [Example 15] | <50.0 | > 30 | < 30 | < 0.1 |
| CC(C)Nc1ncc(-c2cc(N)cc(C(F)(F)F)c2)n(CC(=O)NCc2ccc(C(=N)N)cc2)c1=O [Example 18] | <50.0 | > 30 | > 30 | < 0.1 |
| CC(C)Nc1ncc(-c2cc(N)cc(C(=O)NCc3ccccc3)c2)n(CC(=O)NCc2ccc(C(=N)N)cc2)c1=O.O=C(O)C(F)(F)F.O=C(O)C(F)(F)F [Example 24] | <50.0 | > 30 | > 30 | < 0.1 |
| CC(C)Nc1ncc(-c2cc(N)cc(C(=O)N(C)Cc3ccccc3)c2)n(CC(=O)NCc2ccc(C(=N)N)cc2)c1=O.O=C(O)C(F)(F)F.O=C(O)C(F)(F)F [Example 28] | <50.0 | > 30 | > 30 | < 0.1 |
| CNc1ncc(-c2cc(N)cc(N)c2)n(CC(=O)NCc2ccc(C(=N)N)cc2)c1=O [Example 35] | <50.0 | > 30 | > 30 | < 0.1 |
| CC(C)Nc1ncc(-c2cc(N)cc(C(F)(F)F)c2)n(CC(=O)NCc2ccc(C(=N)N)c(O)c2)c1=O [Example 49] | <50.0 | > 30 | > 30 | > 0.1 |
| CC(C)Nc1ncc(-c2cc(N)cc(NC(=O)C(C)C)c2)n(CC(=O)NCc2ccc(C(=N)N)cc2)c1=O [Example 50, N-{3-amino-5-[1-[2-({4-[amino(imino)methyl]benzyl}amino)-2-oxoethyl]-5-(isopropylamino)-6-oxo-1,6-dihydropyrazin-2-yl]phenyl}-2-methylpropanamide] | <50.0 | > 30 | < 30 | < 0.1 |
| CC(C)Nc1ncc(-c2cc(N)cc(C(F)(F)F)c2)n(CC(=O)NCc2ccc(C(=N)N)c(F)c2F)c1=O [Example 51] | <50.0 | > 30 | > 30 | > 0.1 |
| COc1cc(N)cc(-c2cnc(NC(C)C)c(=O)n2CC(=O)NCc2ccc(C(=N)N)cc2)c1 [Example 53, N-{4-[Amino(imino)methyl]benzyl}-2-[6-(3-amino-5-methoxyphenyl)-3-(isopropylamino)-2-oxopyrazin-1 (2H)-yl]acetamide] | <50.0 | > 30 | > 30 | < 0.1 |
| CC(C)Nc1ncc(-c2cc(N)cc(O)c2)n(CC(=O)NCc2ccc(C(=N)N)cc2)c1=O [Example 54] | <50.0 | > 30 | > 30 | < 0.1 |
| CC(C)Nc1ncc(-c2cc(N)cc(C(=O)N[C@@H](C)c3ccccc3)c2)n(CC(=O)NCc2ccc(C(=N)N)cc2)c1=O [Example 57] | <50.0 | > 30 | < 30 | < 0.1 |

| Compound | PT (Prothrombin time) 2xPT [1] [µM] | IC50 (Human factor Xa) [µM] | IC50 (Human thrombin) [µM] | IC50 [2] [µM] |
| --- | --- | --- | --- | --- |
| CC(C)Nc1ncc(-c2cc(N)cc(C(=O)N[C@H](C)c3ccccc3)c2)n(CC(=O)NCc2ccc(C(=N)N)cc2)c1=O [Example 58] | <50.0 | > 30 | < 30 | < 0.1 |
| CC(C)Nc1ncc(-c2cc(N)cc(C(=O)NCc3cc(C(F)(F)F)cc(C(F)(F)F)c3)c2)n(CC(=O)NCc2ccc(C(=N)N)cc2)c1=O [Example 59] | >50.0 | > 30 | > 30 | > 0.1 |
| CC(C)Nc1ncc(-c2cc(N)cc(C(=O)NCc3cccnc3)c2)n(CC(=O)NCc2ccc(C(=N)N)cc2)c1=O [Example 61] | <50.0 | > 30 | > 30 | < 0.1 |
| CC(C)Nc1ncc(-c2cc(N)cc(C(=O)NCCCc3ccccc3)c2)n(CC(=O)NCc2ccc(C(=N)N)cc2)c1=O [Example 62] | <50.0 | > 30 | < 30 | < 0.1 |
| CCNC(=O)c1cc(N)cc(-c2cnc(NC(C)C)c(=O)n2CC(=O)NCc2ccc(C(=N)N)cc2)c1 [Example 63] | <50.0 | > 30 | > 30 | < 0.1 |
| CC(C)COc1cc(N)cc(-c2cnc(NC(C)C)c(=O)n2CC(=O)NCc2ccc(C(=N)N)cc2)c1 [Example 64, N-{4-[amino(imino)methyl]benzyl}-2-[6-(3-amino-5-isobutoxyphenyl)-3-(isopropylamino)-2-oxopyrazin-1 (2H)-yl]acetamide] | <50.0 | > 30 | > 30 | < 0.1 |
| CC(C)Nc1ncc(-c2cc(N)cc(C(F)(F)F)c2)n(CC(=O)NCc2c(F)c(O)c(C(=N)N)c(F)c2F)c1=O [Example 65] | >50.0 | > 30 | > 30 | > 0.1 |
| CC(C)Nc1ncc(-c2cc(N)cc(S(=O)(=O)O)c2)n(CC(=O)NCc2ccc(C(=N)N)cc2)c1=O [Example 66, 3-Amino-5-[1-[2-({4-[amino(imino)methyl]benzyl}amino)-2-oxoethyl]-5-(isopropylamino)-6-oxo-1,6-dihydropyrazin-2-yl]benzenesulfonic Acid] | <50.0 | > 30 | > 30 | < 0.1 |
| CC(C)Nc1ncc(-c2cc(N)cc(C(F)(F)F)c2)n(CC(=O)NCc2ccc(C(=N)N)s2)c1=O [Example 67] | <50.0 | < 30 | > 30 | < 0.1 |
| CC[C@H](C)NC(=O)c1cc(N)cc(-c2cnc(NC(C)C)c(=O)n2CC(=O)NCc2ccc(C(=N)N)cc2)c1 [Example 71] | <50.0 | – | < 30 | – |
| CC(C)Nc1nc(Cl)c(-c2cc(N)cc(O)c2)n(CC(=O)NCc2ccc(C(=N)N)cc2)c1=O.O=C(O)C(F)(F)F [Example 178] | <50.0 | > 30 | – | < 0.1 |
| CC[C@H](C)NC(=O)c1cc(N)cc(-c2cnc(NC3CC3)c(=O)n2CC(=O)NCc2ccc(C(=N)N)cc2)c1.O=C(O)C(F)(F)F.O=C(O)C(F)(F)F [Example 184] | <50.0 | – | < 30 | – |
| CC(C)Nc1ncc(-c2cc(N)c3[nH]ccc3c2)n(CC(=O)NCc2ccc(C(=N)N)cc2)c1=O.O=C(O)C(F)(F)F.O=C(O)C(F)(F)F [Example 249] | <50.0 | – | > 30 | < 0.1 |
| N=C(N)c1ccc(CNC(=O)Cn2c(-c3cc(N)cc(C(=O)OCc4ccccc4)c3)cnc(NC3CC3)c2=O)cc1.O=C(O)C(F)(F)F [Example 251] | <50.0 | – | > 30 | < 0.1 |
| CC[C@@H](C)NC(=O)c1cc(N)cc(-c2cnc(NC(C)C)c(=O)n2CC(=O)NCc2ccc(C(=N)N)c(O)c2)c1.O.O.O=C(O)C(F)(F)F [Example 254] | <50.0 | – | > 30 | < 0.1 |
